Among the test systems are MCF7; UACC-62; DU-145; KM12; A549; M19-MEL; U-251; UACC-257; OVCAR-3; CCRF-CEM; HCT-15; MDA-N; RPMI-8226; RXF 393; MOLT-4; BT-549; NCI-H23; UO-31; MDA-MB-435; SR.
Holding throughout (assay): growth of human tumour cells (NCI), 48 h

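Values below derive from 48-hour exposures of cells grown in 96-well plates, with endpoints linearly interpolated between the two concentrations bracketing the appropriate inhibition level. GI50 = concentration required for 50% inhibition of growth.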 Calls of active or inactive are those of the source. Rule as the data show it: active = GI50 up to about 1.1 µM and inactive = higher.

For the molecule `C[n+]1ccn2c3nc4ccccc4nc3c([O-])c(C#N)c21`, the GI50 is 88.9 µM (inactive) with MCF7; > 100 µM (inactive) with UACC-62; > 100 µM (inactive) in the assay with DU-145; > 10 µM (inactive) in the assay with KM12; > 29.5 µM (inactive) in the assay with A549; < 0.01 µM (active) in the assay with M19-MEL. The GI50 with U-251 was > 100 µM (inactive); with UACC-257, > 100 µM (inactive); with OVCAR-3, > 100 µM (inactive); in the assay with CCRF-CEM it was > 100 µM (inactive); in the assay on HCT-15 it was above 10 µM; in the assay on MDA-N, > 100 µM (inactive). Moreover, the GI50 was > 100 µM (inactive) with RPMI-8226; > 65.9 µM (inactive) with RXF 393; > 100 µM (inactive) with MOLT-4; > 100 µM (inactive) in the assay with BT-549; > 100 µM (inactive) with NCI-H23; > 100 µM (inactive) in the assay with UO-31. For the same molecule, the GI50 with MDA-MB-435 and with SR was > 100 µM (inactive) each time.
As for `CSCC[C@@H](NC(=O)[C@H](CC(C)C)NC(=O)C(Cc1cnc[nH]1)NC(=O)CNC(=O)[C@@H](NC(=O)[C@H](C)NC(=O)[C@H](Cc1c[nH]c2ccccc12)NC(=O)[C@H](CCC(N)=O)NC(=O)[C@@H](N)CC(N)=O)C(C)C)C(N)=O` (some centres undefined), the GI50 with MCF7, in the assay with UACC-62, with KM12, in the assay on A549, in the assay on M19-MEL and with U-251 was > 100 µM (inactive) in each case. For the same molecule, the GI50 was > 88.7 µM (inactive) in the assay on UACC-257; > 100 µM (inactive) in the assay on OVCAR-3; > 100 µM (inactive) in the assay on CCRF-CEM; above 100 µM with HCT-15; > 100 µM (inactive) in the assay on RPMI-8226; > 100 µM (inactive) in the assay with RXF 393. For the same molecule, the GI50 is > 55.7 µM (inactive) in the assay on MOLT-4, > 100 µM (inactive) in the assay with NCI-H23 and > 100 µM (inactive) in the assay on UO-31.
For `NC(=O)c1csc(C2OC(CO)C(O)C2O)n1` (centres undefined), the GI50 with MCF7 is 31.4 µM (inactive); in the assay with UACC-62 it was 42.6 µM (inactive); in the assay with DU-145, 179 µM (inactive); in the assay with KM12, 48.4 µM (inactive); in the assay with A549, 102 µM (inactive); in the assay with M19-MEL, 29 µM (inactive). Besides, the GI50 with U-251 was 8.39 µM (inactive); with UACC-257, 4400 µM (inactive); in the assay on OVCAR-3, 19.6 µM (inactive); in the assay on CCRF-CEM, 7.8 µM (inactive); with HCT-15, 4.14 µM; with MDA-N it was 35.1 µM (inactive). Besides, the GI50 with RPMI-8226 is 150 µM (inactive); in the assay on RXF 393, 126 µM (inactive); with MOLT-4, 5.56 µM (inactive); with BT-549, 885 µM (inactive); in the assay on NCI-H23, 60.1 µM (inactive); in the assay with UO-31 it was 53.2 µM (inactive). Moreover, the GI50 with MDA-MB-435 is 57.9 µM (inactive); with SR, > 31.6 µM (inactive).
For the molecule `Cc1c(-c2ccc(-c3ccccc3F)cc2)nc2ccc(F)cc2c1C(=O)O` [BREQUINAR SODIUM], the GI50 in the assay on MCF7 was 0.267 µM (active); with UACC-62, 0.265 µM (active); in the assay with DU-145, 0.262 µM (active); in the assay with KM12, 0.211 µM (active); in the assay with A549, 0.234 µM (active); with M19-MEL it was 1.2 µM (inactive). The GI50 in the assay on U-251 is 0.194 µM (active); with UACC-257, 12.5 µM (inactive); with OVCAR-3, 3.74 µM (inactive); in the assay with CCRF-CEM, 0.284 µM (active); with HCT-15, 0.0566 µM; in the assay on MDA-N, 0.631 µM (active). Besides, the GI50 was 0.373 µM (active) in the assay on RPMI-8226; 11.7 µM (inactive) with RXF 393; 0.0887 µM (active) in the assay on MOLT-4; 155 µM (inactive) in the assay with BT-549; 21.5 µM (inactive) in the assay with NCI-H23; 1.14 µM (inactive) in the assay on UO-31. In the assay with SR, the GI50 was 0.427 µM (active).
With `O=C1/C(=C/c2ccccc2)CN(C(=O)Oc2ccc(Cl)cc2)C/C1=C\c1ccccc1`, the GI50 in the assay on UACC-62 was 2.31 µM (inactive); with KM12, 1.49 µM (inactive); in the assay with A549, 9.33 µM (inactive); with M19-MEL, 1.12 µM (active); in the assay on U-251 it was 1.53 µM (inactive); in the assay with UACC-257, 1.7 µM (inactive). Besides, the GI50 with OVCAR-3 was 3.42 µM (inactive); with CCRF-CEM, 1.55 µM (inactive); with HCT-15, 1.17 µM; with RPMI-8226 it was 0.0957 µM (active); with RXF 393 it was 2.17 µM (inactive); with MOLT-4 it was 2.65 µM (inactive). Further, the values for the GI50 with NCI-H23, with UO-31 and with SR were 3.22 µM (inactive), 4.75 µM (inactive) and 1.32 µM (inactive), respectively.
Regarding `Cc1cccc(C)c1NC(=O)CCC(=O)NC(N)=S`, the GI50 in the assay with UACC-62, with KM12, with A549, with M19-MEL, in the assay with U-251 and in the assay with UACC-257 was > 100 µM (inactive) in each case. For the same molecule, the GI50 with OVCAR-3 is > 100 µM (inactive); with CCRF-CEM, > 100 µM (inactive); in the assay with HCT-15, above 100 µM; in the assay with RPMI-8226 it was > 100 µM (inactive); with RXF 393, > 100 µM (inactive); in the assay with MOLT-4, > 100 µM (inactive). Besides, the GI50 in the assay with NCI-H23, with UO-31 and in the assay on SR was > 100 µM (inactive) throughout.

The record behind these values is ChEMBL document CHEMBL1201862, “PubChem BioAssay data set” (2004).
